The target in assay [1] is Human TDO (hTDO)-transfected CHO-K1 cells (Homo sapiens (Human), UniProt P48775). The experiment in a line: CHO-K1 cell based TDO assay. The note with it: hTDO cellular assay. As for the experimental part: Human TDO (hTDO)-transfected CHO-K1 cells were used to identify test compounds that inhibit TDO activity and reduce Kynurenine production. CHO-K1 cells (ATCC) were cultured in DMEM supplemented with sodium bicarbonate (2.1 g/L), HEPES (4.1 g/L), L-glutamine (2 mM), non-essential amino acid (84 mg/L) and fetal bovine serum (10%) and maintained at 95% humidity and 5% CO2 in a 37° C. incubator. The TDO gene (TDO2) (Accession number NM_005651.1) was purchased from Origene (USA) and stably expressed in CHO-Kl cells using the expression vector pcDNA4/Myc-HisB Hygro (Life Technologies, USA). TDO-expressing clones were identified based on the kynurenine production by the cells. Expanded clones were used for assay as described below. Unless otherwise stated, all materials were procured from Sigma.
hTDO transfected CHO-K1 cells (0.05 million/well) were seeded in a 96-well plate and maintained overnight in DMEM containing 10% FBS (200 μL) at 95% humidity and 5% CO2 in a 37° C. incubator. The following day, cells were washed and incubated with test compounds (typically 31 μM to 10 nM, final volume 150 μL) in Hanks Balanced Salt Solution (HBSS) containing 80 μM L-tryptophan for 2 hours. Supernatant (150 μL) from the cells was treated with 30% TCA ([…]) to precipitate proteins. Supernatants were further incubated at 65° C. for 15 min to convert N-formylkynurenine to kynurenine. KYN in the supernatant was measured by LC/MS/MS using an API4000 mass spectrometer (Applied Biosystems) coupled to a Shimadzu Prominence LC system fitted with a C18 column.
Percent inhibition of the test compounds was determined by measuring the decrease in KYN as compared to the reaction control (DMSO vehicle). IC50 values were calculated using Graph Pad Prism® 5 as described above.

Assay [2] deals with Human indoleamine 2,3-dioxygenase1 (hIDO1) (Homo sapiens (Human), UniProt P14902). The experiment in a line: In-vitro IDO1 enzyme assay (conversion of L-tryptophan to KYN). It counts as biochemical. The note with it: read-out: IC50 (IDO1) Enz. An excerpt:
Human indoleamine 2,3-dioxygenasel (hIDO1) catalyzes the oxidative cleavage of the pyrrole ring of the indole nucleus of tryptophan to yield N-formylkynurenine which can be converted to kynurenine (KYN) by deformylation. hIDO1 with an N-terminal His tag, expressed and purified from E. coli cells was procured from either Enzo LifeScienccs, NY, USA). Unless otherwise stated, all materials were procured from Sigma Aldrich, Mo., USA.
The assay monitoring the conversion of L-tryptophan to KYN was carried out as follows. hIDO1 (10 nM) was incubated with tryptophan (30 μM) in the presence of ascorbic acid (20 mM), methylene blue (10 μM) and catalase (100 μg/mL) in potassium phosphate buffer (50 mM; pH 6.5) at 37C for 30 min. The reaction was terminated with 30% trichloroacetic acid (TCA) and further incubated at 65C for 15 min to fully convert N-formylkynurenine to KYN. The reaction mixture was then centrifuged to remove sediments and the KYN in the supernatant was estimated by UV-visible absorption spectroscopy at 360 nm using a Waters HPLC system fitted with a C-18 column or by LC/MS/MS. See, Sono, 1980, J. Biol. Chem., 255:1339-1345, which is herein incorporated by reference.
Percent inhibition at each concentration of test compounds was determined by estimating the decrease in KYN with reference to the reaction control with 1% DMSO vehicle. Data were analyzed using nonlinear regression to generate IC50 values using Graph Pad Prism® 5.

Structures are written as SMILES. Some results are limits rather than exact numbers.

Sequence of Human TDO (hTDO)-transfected CHO-K1 cells (P48775 whole entry): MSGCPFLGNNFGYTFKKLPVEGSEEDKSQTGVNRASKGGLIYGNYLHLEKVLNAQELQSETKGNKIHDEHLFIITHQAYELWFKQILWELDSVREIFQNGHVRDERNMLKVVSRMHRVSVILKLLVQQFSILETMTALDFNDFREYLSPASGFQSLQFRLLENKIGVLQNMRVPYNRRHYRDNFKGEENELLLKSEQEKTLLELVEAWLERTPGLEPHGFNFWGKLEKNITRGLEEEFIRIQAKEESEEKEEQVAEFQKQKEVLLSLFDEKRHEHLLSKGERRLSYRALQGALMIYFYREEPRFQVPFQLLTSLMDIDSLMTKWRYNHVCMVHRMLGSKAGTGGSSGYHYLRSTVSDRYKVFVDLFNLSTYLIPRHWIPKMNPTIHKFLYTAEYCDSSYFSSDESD
Sequence of Human indoleamine 2,3-dioxygenase1 (hIDO1) (P14902 whole entry): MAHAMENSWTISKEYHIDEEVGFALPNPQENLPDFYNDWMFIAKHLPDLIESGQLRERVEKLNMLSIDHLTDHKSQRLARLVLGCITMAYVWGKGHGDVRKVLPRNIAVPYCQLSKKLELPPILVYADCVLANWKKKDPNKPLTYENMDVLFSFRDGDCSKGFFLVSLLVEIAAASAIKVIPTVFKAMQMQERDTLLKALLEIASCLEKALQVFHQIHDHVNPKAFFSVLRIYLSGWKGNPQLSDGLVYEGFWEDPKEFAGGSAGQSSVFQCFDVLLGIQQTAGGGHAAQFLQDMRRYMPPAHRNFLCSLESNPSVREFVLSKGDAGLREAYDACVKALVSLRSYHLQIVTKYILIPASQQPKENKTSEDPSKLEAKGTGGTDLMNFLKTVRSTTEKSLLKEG

On to `Cc1cc(-c2cccc3c(Nc4ccccc4)c(N)sc23)ccn1` [Compound 265, 7-(2-Methylpyridin-4-yl)-N^3-phenylbenzo[b]thiophene-2,3-diamine], for which the IC50 (usually the concentration that gives 50% inhibition) in assay [1] was 500 to 2000 nM; in assay [2], less than 200 nM.
`CC(C)Oc1cccc(Nc2c(N)oc3cnccc23)c1` [Compound 37, N^3-(3-Isopropoxyphenyl)furo[2,3-c]pyridine-2,3-diamine]: the IC50 in assay [1] is more than 2000 nM; in assay [2] it was more than 1000 nM.
The corresponding values for `Nc1oc2cnccc2c1Nc1cc(F)c(F)cc1F` [Compound 12, N^3-(2,4,5-Trifluorophenyl)furo[2,3-c]pyridine-2,3-diamine] are more than 2000 nM and more than 1000 nM.
Regarding `CCOC(=O)Nc1sc2ccccc2c1Nc1ccc(F)c(Cl)c1` [Compound 209, Ethyl (3-((3-chloro-4-fluorophenyl)amino)benzo[b]thiophen-2-yl)carbamate], the values for the IC50 in assay [1] and in assay [2] were more than 2000 nM and more than 1000 nM, respectively.
For the compound `Nc1oc2cnccc2c1Nc1cccc(C2CCCCC2)c1` [Compound 88, N^3-(3-Cyclohexylphenyl)furo[2,3-c]pyridine-2,3-diamine], the IC50 in assay [1] was 500 to 2000 nM; in assay [2], more than 1000 nM.
Regarding `Cc1ccc(Nc2c(N)oc3cnccc23)c(C)c1` [Compound 54, N^3-(2,4-Dimethylphenyl)furo[2,3-c]pyridine-2,3-diamine], the 50% inhibitory concentration (IC50) in assay [1] is 500 to 2000 nM; in assay [2], more than 1000 nM.
For the compound `Nc1oc2cnccc2c1Nc1cccc(-c2ccccc2)c1` [Compound 53, N^3-([1,1′-Biphenyl]-3-yl)furo[2,3-c]pyridine-2,3-diamine], the figures for the IC50 in assay [1] and in assay [2] were more than 2000 nM and more than 1000 nM, respectively.
On to `Nc1oc2cnccc2c1Nc1ccc(I)c(Cl)c1` [Compound 18, N^3-(3-Chloro-4-iodophenyl)furo[2,3-c]pyridine-2,3-diamine], for which the IC50 in assay [1] was 500 to 2000 nM; in assay [2], more than 1000 nM.
Consider `Nc1oc2cnccc2c1Nc1ccc(Cl)c(Cl)c1Cl` [Compound 31, N^3-(2,3,4-Trichlorophenyl)furo[2,3-c]pyridine-2,3-diamine], for which the values for the IC50 in assay [1] and in assay [2] were more than 2000 nM and more than 1000 nM, respectively.
For the compound `CC(C)Oc1cc2c(Nc3ccc(F)c(Cl)c3)c(N)oc2c(-c2ccccc2)n1` [Compound 107, N^3-(3-Chloro-4-fluorophenyl)-5-isopropoxy-7-phenylfuro[2,3-c]pyridine-2,3-diamine], the IC50 in assay [1] was more than 2000 nM; in assay [2], more than 1000 nM.
As to `CCOC(=O)Nc1oc2c(-c3cc(C)nc(C)c3)nccc2c1N(C(=O)OCC)c1ccc(F)c(Cl)c1` [Compound 165, Ethyl (3-chloro-4-fluorophenyl)(7-(2,6-dimethylpyridin-4-yl)-2-((ethoxycarbonyl)amino)furo[2,3-c]pyridin-3-yl)carbamate], the IC50 in assay [1] was more than 2000 nM; in assay [2], more than 1000 nM.
With `Nc1sc2cnccc2c1Nc1ccc(F)c(Cl)c1` [Compound 121, N^3-(3-chloro-4-fluorophenyl)thieno[2,3-c]pyridine-2,3-diamine], the IC50 is more than 2000 nM in assay [1] and more than 1000 nM in assay [2].
The corresponding values for `Nc1oc2cnccc2c1Nc1ccc(OC(F)(F)F)cc1` [Compound 50, N^3-(4-(Trifluoromethoxy)phenyl)furo[2,3-c]pyridine-2,3-diamine] are 500 to 2000 nM and more than 1000 nM.
For `Nc1oc2cnccc2c1Nc1ccc(Cc2ccccc2)cc1` [Compound 23, N^3-(4-Benzylphenyl)furo[2,3-c]pyridine-2,3-diamine], the IC50 in assay [1] is 500 to 2000 nM; in assay [2] it was more than 1000 nM.
The like results for `CCOC(=O)Nc1oc2c(I)nccc2c1N(C(=O)OCC)c1ccc(F)c(Cl)c1` [Compound 156, Ethyl (3-chloro-4-fluorophenyl)(2-((ethoxycarbonyl)amino)-7-iodofuro[2,3-c]pyridin-3-yl)carbamate] were, in that order, more than 2000 nM and more than 1000 nM.
The corresponding values for `Nc1oc2cnccc2c1Nc1ccc(Cl)cc1` [Compound 17, N^3-(4-Chlorophenyl)furo[2,3-c]pyridine-2,3-diamine] are 500 to 2000 nM and more than 1000 nM.
As for `Nc1oc2cnccc2c1Nc1cccc(Cc2ccccc2)c1` [Compound 75, N^3-(3-Benzylphenyl)furo[2,3-c]pyridine-2,3-diamine], the IC50 in assay [1] was more than 2000 nM; in assay [2], more than 1000 nM.
On to `Nc1oc2cnccc2c1Nc1ccc(Cl)cc1Cl` [Compound 7, N^3-(2,4-Dichlorophenyl)furo[2,3-c]pyridine-2,3-diamine], for which the half-maximal inhibitory concentration (IC50) was more than 2000 nM in assay [1] and more than 1000 nM in assay [2].
Turning to `CCOC(=O)Nc1oc2c(-c3cccc(C#N)c3)nccc2c1N(C(=O)OCC)c1ccc(F)c(Cl)c1` [Compound 146, Ethyl (3-chloro-4-fluorophenyl)(7-(3-cyanophenyl)-2-((ethoxycarbonyl)amino)furo[2,3-c]pyridin-3-yl)carbamate], the figures for the IC50 in assay [1] and in assay [2] were more than 2000 nM and more than 1000 nM, respectively.
As to `CC(C)(C)c1cccc(Nc2c(N)oc3cnccc23)c1` [Compound 61, N^3-(3-(tert-Butyl)phenyl)furo[2,3-c]pyridine-2,3-diamine], the IC50 in assay [1] was more than 2000 nM; in assay [2], more than 1000 nM.
Consider `Nc1sc2c(-c3cncc4ccccc34)cccc2c1Nc1ccc(F)c(Cl)c1` [Compound 281, N^3-(3-Chloro-4-fluorophenyl)-7-(isoquinolin-4-yl)benzo[b]thiophene-2,3-diamine], for which, in assay [1], the IC50 was more than 2000 nM.
With `CCOC(=O)Nc1oc2c(-c3cc(C)nc(C)c3)nccc2c1Nc1ccc(F)c(Cl)c1` [Compound 163, Ethyl (3-((3-chloro-4-fluorophenyl)amino)-7-(2,6-dimethylpyridin-4-yl)furo[2,3-c]pyridin-2-yl)carbamate], the IC50 in assay [1] is more than 2000 nM; in assay [2], more than 1000 nM.
Turning to `COc1cc(Nc2c(N)oc3cnccc23)cc(OC)c1` [Compound 38, N^3-(3,5-Dimethoxyphenyl)furo[2,3-c]pyridine-2,3-diamine], the IC50 in assay [2] is more than 1000 nM.
On to `CC(C)(C)c1cc(Nc2c(N)oc3cnccc23)cc(C(C)(C)C)c1` [Compound 32, N^3-(3,5-Di-tert-butylphenyl)furo[2,3-c]pyridine-2,3-diamine], for which the 50% inhibitory concentration (IC50) is 500 to 2000 nM in assay [1] and more than 1000 nM in assay [2].
Consider `Nc1oc2c(-c3ccc(F)c(F)c3F)nccc2c1Nc1ccc(F)c(Cl)c1` [Compound 171, N^3-(3-Chloro-4-fluorophenyl)-7-(2,3,4-trifluorophenyl)furo[2,3-c]pyridine-2,3-diamine], for which the IC50 in assay [2] was less than 200 nM.
For `Nc1oc2cnccc2c1Nc1cccc2c1CCCC2` [Compound 63, N^3-(5,6,7,8-Tetrahydronaphthalen-1-yl)furo[2,3-c]pyridine-2,3-diamine], the values for the IC50 in assay [1] and in assay [2] were more than 2000 nM and more than 1000 nM, respectively.
With `O=C(Nc1oc2cnccc2c1N(C(=O)OCc1ccccc1)c1ccc(F)c(Cl)c1)OCc1ccccc1` [Compound 140, Benzyl (2-(((benzyloxy)carbonyl)amino)furo[2,3-c]pyridin-3-yl)(3-chloro-4-fluorophenyl)carbamate], the IC50 in assay [2] was more than 1000 nM.
Regarding `Nc1sc2ccc(-c3ccccc3)cc2c1Nc1ccc(F)c(Cl)c1` [Compound 134, N^3-(3-chloro-4-fluorophenyl)-5-phenylbenzo[b]thiophene-2,3-diamine], the IC50 in assay [2] is more than 1000 nM.
Consider `Nc1oc2cccnc2c1Nc1ccc(F)c(Cl)c1` [Compound 1, N^3-(3-chloro-4-fluoro-phenyl)-furo[3,2-b]pyridine-2,3-diamine], for which, in assay [2], the IC50 was less than 200 nM.

The record behind these values is US10294212B2 (CURADEV PHARMA PRIVATE LTD., priority 2013, dated 2019).
